The source of these data is patent publication US6846803B1, “Antagonists specific for the corticotropin-releasing factor receptor type 2 (CRFR2)” (priority 1998, dated 2005).

The target in assay [1] is T1, mCRFR2β (Mus musculus, UniProt Q60748).
T1 construct: expressed in transfected cells; host or cells: HEK 293 cells, stably transfected (HEK-mCRFR2β); membrane homogenates
Briefly: Displacement of [^125I-Tyr^0]Svg from membranes of HEK-mCRFR2β cells. In kind it is binding. The settings on record: for Selectivity: Kd(rCRFR1)(peptide)/Kd(rCRFR1)(astressin) × Kd(mCRFR2β)(astressin)/Kd(mCRFR2β)(peptide). Here is the method:
Binding assays were performed in 96-well MultiScreen plates (Millipore, Eschborn, Germany) with GF/B filters (pore size 1.0 μm). […] After incubation (60 min, 23° C.), membrane suspension was aspirated through the plate, followed by two washes with assay buffer (0.2 ml, 23°). Radioactivity of the punched filters was measured with a 1470 WIZARD automatic gamma counter (Berthold, Hannover). […] Statistical analysis was performed with ANOVA, and significant differences between groups were determined by post hoc comparison using the Dunn test.
Membrane homogenates of human embryonic kidney (HEK) 293 cells stably transfected with cDNA coding for rat CRF receptor, type 1 (rCRFR1) or mouse CRF receptor, type 2β (mCRFR2β) were prepared according to standard protocols (see, e.g., Sambrook et al., Molecular Cloning: A Laboratory Manual, 2nd. Edition, Cold Spring Habor Laboratory Press, Cold Spring Habor, N.Y., 1989; Ausubel et al., Current Protocols in Molecular Biology, Green Publishing Associates and Wiley Interscience, NY, 1989).

In assay [2] the target is T1, mCRFR2β. Briefly: cAMP stimulation / inhibition of Svg-stimulated cAMP production in HEK-mCRFR2β cells. In kind it is cell-based. The arrangement: Emax: dose or concentration left out as unconfirmed. The settings on record: for mCRFR2β relative in vitro potency: Table 2, Svg alone = 1.00 (lower = stronger inhibition). How it is done: (§1) HEK-rCRFR1 cells or HEK-mCRFR2β cells were incubated with different CRF agonists in the presence or absence of 1 μM or 10 nM antagonist, or CRF antagonist (c=1 μM) alone. After removal of the medium, cells were lyzed with aqueous 6% trichloroacetic acid (5 min, 100° C.) (Rühmann, A., A. K. E. Köpke, F. M. Dautzenberg, and J. Spiess, Proc. Natl. Acad. Sci. USA 93: 10609-10613, 1996). The cell lysates were stored at −70° C. until assayed with a RIA kit (Amersham, Little Chalfont). […] Statistical significance was determined across groups with ANOVA, and significant differences between groups were determined by post hoc comparison using the Dunn test.
(§2) Intrinsic activities were measured at peptide concentrations generating maximal formation of cAMP in HEK-rCRFR1 or HEK-mCRFR2β cells.
Target sequence in this assay (Q60748 1-431 isoform Q60748-2): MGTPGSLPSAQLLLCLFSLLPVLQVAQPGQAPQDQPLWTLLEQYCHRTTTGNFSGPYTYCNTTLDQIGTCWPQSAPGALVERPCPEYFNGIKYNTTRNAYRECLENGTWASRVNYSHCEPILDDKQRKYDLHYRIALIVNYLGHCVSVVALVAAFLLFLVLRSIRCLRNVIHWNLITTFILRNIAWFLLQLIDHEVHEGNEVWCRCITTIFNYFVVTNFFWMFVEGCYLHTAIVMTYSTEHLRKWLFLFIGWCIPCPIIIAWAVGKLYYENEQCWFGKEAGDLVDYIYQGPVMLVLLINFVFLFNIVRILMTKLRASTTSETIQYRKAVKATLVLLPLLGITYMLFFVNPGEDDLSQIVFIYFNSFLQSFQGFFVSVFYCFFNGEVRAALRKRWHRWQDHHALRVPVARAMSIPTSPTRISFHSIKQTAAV
In general terms: cAMP levels reflect the balance of adenylyl cyclase and phosphodiesterase activity.

In another assay the target is T2, rCRFR1 (Rattus norvegicus, UniProt P35353).
T2 construct: expressed in transfected cells; host or cells: HEK 293 cells, stably transfected (HEK-rCRFR1)
T2 sequence (P35353 24-415): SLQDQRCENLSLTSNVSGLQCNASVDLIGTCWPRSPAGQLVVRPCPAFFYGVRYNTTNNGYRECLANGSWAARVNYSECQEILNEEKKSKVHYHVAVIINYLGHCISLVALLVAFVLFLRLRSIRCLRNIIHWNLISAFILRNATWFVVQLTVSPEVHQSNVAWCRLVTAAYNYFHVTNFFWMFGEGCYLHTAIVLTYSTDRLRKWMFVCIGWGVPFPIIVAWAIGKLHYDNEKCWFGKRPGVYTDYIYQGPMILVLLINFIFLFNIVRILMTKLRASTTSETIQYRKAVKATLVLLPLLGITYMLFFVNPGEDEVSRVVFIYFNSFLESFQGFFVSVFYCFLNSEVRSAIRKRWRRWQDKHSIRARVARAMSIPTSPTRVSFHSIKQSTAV
Description: cAMP stimulation / inhibition of oCRF-stimulated cAMP production in HEK-rCRFR1 cells. In kind it is cell-based. Particulars: for rCRFR1 relative in vitro potency: Table 2, 1 μM antagonist, cAMP production stimulated by 1 nM oCRF, oCRF alone = 1.00 (lower = stronger inhibition). How it is done:
as §1, §2

[3] abbreviates: 10 nM antagonist, cAMP production stimulated by 1 nM Svg.
Where [4] appears, read: read-out: HEK-mCRFR2β cells rel. IA (relative intrinsic activity).
Setting [5] is: read-out: mCRFR2β % IA (intrinsic activity).

Like-named read-outs stand apart in the source and are kept apart here. Marks after values point to notes of the source that are not given here.

In the case of “[DPhe^12, Nle^21,38]h/rCRF(12-41) [compound 5, reference compound]”, the Selectivity on mCRFR2β [1] (Table 1) is reported as 1.84. In addition, the “mCRFR2β relative in vitro potency” value on mCRFR2β [2] (setting [3]) was 0.87 ± 0.08^i. Further, the “rCRFR1 relative in vitro potency” value on rCRFR1 is recorded as 0.33 ± 0.08^h,i.
In turn, [DPhe^12]oCRF(12-41) [compound 6] displayed a Selectivity on mCRFR2β [1] (Table 1) of 1.32. The “mCRFR2β relative in vitro potency” value on mCRFR2β [2] (setting [3]) is 0.92 ± 0.07^k. The “rCRFR1 relative in vitro potency” value at rCRFR1 is recorded as 0.89 ± 0.07.
Taken in the same sequence, the figures for “[DLeu^11, Glu^12]rUcn(11-40) [compound 9]” were 2.29, 0.81 ± 0.06 and 0.56 ± 0.05.
On to `CC[C@H](C)[C@H](NC(=O)[C@@H](NC(=O)[C@H](CC(=O)O)NC(=O)[C@H](CC(C)C)NC(=O)[C@H](CC(C)C)NC(=O)[C@H](CC(C)C)NC(=O)[C@H](CCCNC(=N)N)NC(=O)[C@H](CC(N)=O)NC(=O)[C@H](CC(N)=O)NC(=O)[C@H](C)NC(=O)[C@H](C)NC(=O)[C@H](CCC(N)=O)NC(=O)[C@H](CCC(N)=O)NC(=O)[C@H](CCCCN)NC(=O)[C@H](CCC(=O)O)NC(=O)[C@H](CCCCN)NC(=O)[C@H](CCC(=O)O)NC(=O)[C@H](CCC(N)=O)NC(=O)[C@H](CCCCN)NC(=O)[C@H](CCC(=O)O)NC(=O)[C@@H](NC(=O)[C@H](CCC(=O)O)NC(=O)[C@@H](NC(=O)[C@H](CCSC)NC(=O)[C@H](CCCCN)NC(=O)[C@H](CCCNC(=N)N)NC(=O)[C@H](CC(C)C)NC(=O)[C@H](CC(C)C)NC(=O)[C@H](Cc1c[nH]cn1)NC(=O)[C@H](N)Cc1ccccc1)[C@@H](C)CC)[C@@H](C)CC)[C@@H](C)O)C(N)=O` [compound 11, [DPhe^11, His^12]Svg(11-40)], for which, at mCRFR2β [1], the affinity, expressed as Kd, was 1.4 ± 0.4 nM. The Emax on mCRFR2β [2] (setting [4]) was 0.4 ± 0.1%; at mCRFR2β [2] (setting [5]) it was 0.4 ± 0.1%; on rCRFR1 (read-out: HEK-rCRFR1 cells rel. IA (relative intrinsic activity)), 4 ± 1%; at rCRFR1 (read-out: rCRFR1 % IA (intrinsic activity)), 4 ± 1%.
On mCRFR2β [1] (Table 1), “cyclo(29-32)[DPhe^11, Glu^29, Lys^32]rUcn(11-40) [compound 10]” returned a Selectivity of 1.48. Also, the “mCRFR2β relative in vitro potency” value at mCRFR2β [2] (setting [3]) worked out at 0.89 ± 0.01. At rCRFR1, the “rCRFR1 relative in vitro potency” value amounted to 0.78 ± 0.10.
In the case of `CC[C@H](C)[C@H](NC(=O)[C@@H](NC(=O)[C@H](CC(=O)O)NC(=O)[C@H](CC(C)C)NC(=O)[C@H](CC(C)C)NC(=O)[C@H](CC(C)C)NC(=O)[C@H](CCCNC(=N)N)NC(=O)[C@H](CC(N)=O)NC(=O)[C@H](CC(N)=O)NC(=O)[C@H](C)NC(=O)[C@H](C)NC(=O)[C@H](CCC(N)=O)NC(=O)[C@H](CCC(N)=O)NC(=O)[C@H](CCCCN)NC(=O)[C@H](CCC(=O)O)NC(=O)[C@H](CCCCN)NC(=O)[C@H](CCC(=O)O)NC(=O)[C@H](CCC(N)=O)NC(=O)[C@H](CCCCN)NC(=O)[C@H](CCC(=O)O)NC(=O)[C@@H](NC(=O)[C@H](CCC(=O)O)NC(=O)[C@@H](NC(=O)[C@H](CCSC)NC(=O)[C@H](CCCCN)NC(=O)[C@H](CCCNC(=N)N)NC(=O)[C@H](CC(C)C)NC(=O)[C@H](CC(C)C)NC(=O)[C@H](CCC(=O)O)NC(=O)[C@H](CC(C)C)NC(=O)[C@H](CO)NC(=O)[C@H](CC(C)C)NC(=O)[C@H](CC(=O)O)NC(=O)[C@@H](NC(=O)[C@H](CO)NC(=O)[C@@H](NC(=O)[C@@H]1CCCN1C(=O)[C@@H]1CCCN1C(=O)CNC(=O)[C@@H]1CCC(=O)N1)[C@@H](C)CC)[C@@H](C)CC)[C@@H](C)CC)[C@@H](C)CC)[C@@H](C)O)C(N)=O` [compound 2, Svg, reference compound], the Selectivity at mCRFR2β [1] (Table 1) and on mCRFR2β [1] (Table 3) was 0.109 throughout. Also, the “mCRFR2β relative in vitro potency” value on mCRFR2β [2] (setting [3]) came to 1.00. The “HEK-mCRFR2β cells rel. pot. (relative potency)” value on mCRFR2β [2] (Table 4, 10 nM antagonist, cAMP production stimulated by 1 nM Svg, Svg alone = 1.00) is listed as 1.00. Moreover, the Emax on mCRFR2β [2] (setting [4]) and on mCRFR2β [2] (setting [5]) was 100% each time.
